Data taken from patent US20250000843A1, “LIGNAN-INSPIRED COMPOUNDS, METHODS OF MAKING, AND USING THEREOF” (IOWAIBO, INC., priority 2023, published 2025).

Experiments:
[1] = tested on: MCF7 (human breast cancer cell line); assay: MTT toxicity assay in MCF7 breast cancer cells; type: cell-based
Method: Toxicity of the dibenzyl butyl lactone derivative (3-[(3,4-dimethoxyphenyl)cyclopentyl], 4-[(3-hydroxyphenol)methyl]oxolan-2-one) in breast cancer cells was evaluated using MTT assay. The MTT toxicity test is a colorimetric assay to measure cells' metabolic activity by serving as a substrate of cellular enzymes that reduce the tetrazolium orange dye, MTT (3-(4,5-Dimethylthiazol-2-yl)-2,5-diphenyltetrazolium bromide) to its insoluble, formazan, giving a purple color. The rate of conversion is directly proportional to cells' mitochondrial metabolic activity via NAD (P) H-dependent cellular oxidoreductase enzymes and serves as a surrogate marker of cell viability.
Cultures of MCF7 (human breast cancer cell line) working stock (5 passages) were established under standard culture conditions in Eagle's minimum essential medium (EMEM). EMEM was supplemented with 10% fetal bovine serum (FBS), 2 mM Glutamine and Pen/Strep, and Penicillin 0.01 mg/ml.
Cells previously expanded were seeded in 96 well plates at 1.9×10^5 and 9.6×10^4 cells/plate for 24- and 72-hours treatment respectively. This concentration is known to show the best window for the MTT assay, with better sensitivity and low variability.
5 mg of powdered enterolactone, dibenzyl butyl lactone derivative enantiomer A, and dibenzyl butyl lactone derivative enantiomer B were dissolved in 500 μl of DMSO at room temperature. Eight-point curves, ⅓ dilutions (highest concentration 125 μM), were prepared.
Twenty-four hours following the seeding process, the cells were washed once with phosphate buffered saline (PBS) and treated with the respective compounds in cell culture media. Each condition was tested in triplicates. For positive and negative controls, 8 mM methyl methane sulfonate (MMS) and DMSO 100% were used respectively.
Following compound addition, the plates were incubated for 24 and 72 hours. After the treatment period, cells were washed twice with PBS and media was replaced with MTT reagent at 0.5 mg/ml in Dulbecco's modified Eagle medium (DMEM) without phenol red. The plates were gently shaken and incubated for 4 hours. After the incubation the medium was removed and replaced by DMSO. The plates were gently shaken to solubilize the formazan crystals. Absorbance was measured using an Envision multiplate reader at a wavelength of 570 nm.
Eight serial dilutions were prepared (125.00, 41.67, 13.89, 4.63, 1.54, 0.51, 0.17 and 0.06 µM to evaluate the compounds (in triplicate). MTT results showing cell death values above 20% are considered as having a significant toxic effect.
MTT assay results are shown in Tables 2-7 and expressed as the percentage of cell death after treatment.

[2] = tested on: human induced pluripotent stem (iPS) cells; type: cell-based
Method: The dibenzyl butyl lactone derivative enantiomer A and B were compared to enterolactone and tested to determine toxicity using a human pluripotent stem (hPS) cell-based assay that predicts the developmental toxicity potential. […] The current study was conducted using human induced pluripotent stem (iPS) cells.
The impact of test article exposure on ornithine and cystine metabolism in human induced pluripotent stem (iPS) cells was measured for three test articles (dibenzyl butyl lactone derivative enantiomer A, dibenzyl butyl lactone derivative enantiomer B, and enterolactone) and prediction of the potential for developmental toxicity was made through application of the hPS cell-based assay. Exposure spanned a range of eight treatment levels per test article ranging from 0.03-100 μM.
The observed decrease in the o/c ratio following exposure to each test article is indicative of the potential for developmental toxicity and/or embryo lethality in vivo at or above the dTP concentration. FIGS. 15A-C show the o/c ratio of dibenzyl butyl lactone derivative enantiomer A (FIG. 15A), dibenzyl butyl lactone derivative enantiomer B (FIG. 15B), and (+/−) enterolactone (FIG. 15C). The graphs in FIGS. 15A-C show the cell viability and o/c/ ratio over concentrations of 0.03-100 μM with the straight horizontal line illustrating the developmental toxicity threshold of 0.85.

Question: `O=C1OC[C@H](Cc2cccc(O)c2)[C@H]1Cc1cccc(O)c1` (racemic) [Enterolactone, reference compound] was tested. Which “Cell death #1 (%)” value ([1]; MCF7, 24 hours, 0.06 μM) did it give?
Answer: Its value is −11.97%.

Question: What about the “Cell death #2 (%)” value ([1]; MCF7, 24 hours, 0.06 μM) of the same molecule?
Answer: The value was −41.20%.

Question: What about the “Cell death #3 (%)” value ([1]; MCF7, 24 hours, 0.06 μM) of the same molecule?
Answer: The value was −33.13%.

Question: What about the “Cell death (%) MEAN” value ([1]; MCF7, 24 hours, 0.06 μM) of the same molecule?
Answer: The value was −28.77%.

Question: And the “Cell death #1 (%)” value ([1]; MCF7, 24 hours, 0.17 μM)?
Answer: The value was −14.66%.

Question: And the “Cell death #2 (%)” value ([1]; MCF7, 24 hours, 0.17 μM)?
Answer: Its value is −12.36%.

Question: What about the “Cell death #3 (%)” value ([1]; MCF7, 24 hours, 0.17 μM) of the same molecule?
Answer: The value was −5.43%.

Question: What about the “Cell death (%) MEAN” value ([1]; MCF7, 24 hours, 0.17 μM) of the same molecule?
Answer: Its value is −10.82%.

Question: What about the “Cell death #1 (%)” value ([1]; MCF7, 24 hours, 0.51 μM) of the same molecule?
Answer: The value was 2.26%.

Question: And the “Cell death #2 (%)” value ([1]; MCF7, 24 hours, 0.51 μM)?
Answer: Its value is −23.51%.

Question: And the “Cell death #3 (%)” value ([1]; MCF7, 24 hours, 0.51 μM)?
Answer: Its value is −19.28%.

Question: What about the “Cell death (%) MEAN” value ([1]; MCF7, 24 hours, 0.51 μM) of the same molecule?
Answer: The value was −13.51%.

Question: What about the “Cell death #1 (%)” value ([1]; MCF7, 24 hours, 1.54 μM) of the same molecule?
Answer: The value was −16.20%.

Question: What about the “Cell death #2 (%)” value ([1]; MCF7, 24 hours, 1.54 μM) of the same molecule?
Answer: The value was −16.97%.

Question: What about the “Cell death #3 (%)” value ([1]; MCF7, 24 hours, 1.54 μM) of the same molecule?
Answer: The value was −21.20%.

Question: And the “Cell death (%) MEAN” value ([1]; MCF7, 24 hours, 1.54 μM)?
Answer: The value was −18.13%.

Question: What about the “Cell death #1 (%)” value ([1]; MCF7, 24 hours, 4.63 μM) of the same molecule?
Answer: Its value is −5.05%.

Question: What about the “Cell death #2 (%)” value ([1]; MCF7, 24 hours, 4.63 μM) of the same molecule?
Answer: Its value is −19.28%.

Question: And the “Cell death #3 (%)” value ([1]; MCF7, 24 hours, 4.63 μM)?
Answer: Its value is −25.82%.

Question: And the “Cell death (%) MEAN” value ([1]; MCF7, 24 hours, 4.63 μM)?
Answer: The value was −16.71%.

Question: What about the “Cell death #1 (%)” value ([1]; MCF7, 24 hours, 13.89 μM) of the same molecule?
Answer: The value was −10.05%.

Question: What about the “Cell death #2 (%)” value ([1]; MCF7, 24 hours, 13.89 μM) of the same molecule?
Answer: The value was −8.13%.

Question: And the “Cell death #3 (%)” value ([1]; MCF7, 24 hours, 13.89 μM)?
Answer: The value was −3.51%.

Question: What about the “Cell death (%) MEAN” value ([1]; MCF7, 24 hours, 13.89 μM) of the same molecule?
Answer: Its value is −7.23%.

Question: And the “Cell death #1 (%)” value ([1]; MCF7, 24 hours, 41.67 μM)?
Answer: The value was −30.05%.

Question: And the “Cell death #2 (%)” value ([1]; MCF7, 24 hours, 41.67 μM)?
Answer: The value was −30.43%.

Question: And the “Cell death #3 (%)” value ([1]; MCF7, 24 hours, 41.67 μM)?
Answer: Its value is −40.43%.

Question: What about the “Cell death (%) MEAN” value ([1]; MCF7, 24 hours, 41.67 μM) of the same molecule?
Answer: Its value is −33.64%.

Question: What about the “Cell death #1 (%)” value ([1]; MCF7, 24 hours, 125.00 μM) of the same molecule?
Answer: Its value is −13.51%.

Question: What about the “Cell death #2 (%)” value ([1]; MCF7, 24 hours, 125.00 μM) of the same molecule?
Answer: Its value is −8.13%.

Question: What about the “Cell death #3 (%)” value ([1]; MCF7, 24 hours, 125.00 μM) of the same molecule?
Answer: Its value is 7.64%.

Question: And the “Cell death (%) MEAN” value ([1]; MCF7, 24 hours, 125.00 μM)?
Answer: Its value is −4.66%.

Question: What about the “Cell death #1 (%)” value ([1]; MCF7, 72 hours, 0.06 μM) of the same molecule?
Answer: Its value is −30.40%.

Question: And the “Cell death #2 (%)” value ([1]; MCF7, 72 hours, 0.06 μM)?
Answer: Its value is −23.70%.

Question: What about the “Cell death #3 (%)” value ([1]; MCF7, 72 hours, 0.06 μM) of the same molecule?
Answer: Its value is −42.46%.

Question: What about the “Cell death (%) MEAN” value ([1]; MCF7, 72 hours, 0.06 μM) of the same molecule?
Answer: Its value is −32.19%.

Question: And the “Cell death #1 (%)” value ([1]; MCF7, 72 hours, 0.17 μM)?
Answer: Its value is −67.59%.

Question: And the “Cell death #2 (%)” value ([1]; MCF7, 72 hours, 0.17 μM)?
Answer: Its value is −62.23%.

Question: What about the “Cell death #3 (%)” value ([1]; MCF7, 72 hours, 0.17 μM) of the same molecule?
Answer: Its value is −65.91%.

Question: What about the “Cell death (%) MEAN” value ([1]; MCF7, 72 hours, 0.17 μM) of the same molecule?
Answer: Its value is −65.24%.

Question: And the “Cell death #1 (%)” value ([1]; MCF7, 72 hours, 0.51 μM)?
Answer: Its value is −66.25%.

Question: And the “Cell death #2 (%)” value ([1]; MCF7, 72 hours, 0.51 μM)?
Answer: The value was −61.22%.

Question: What about the “Cell death #3 (%)” value ([1]; MCF7, 72 hours, 0.51 μM) of the same molecule?
Answer: Its value is −61.89%.

Question: What about the “Cell death (%) MEAN” value ([1]; MCF7, 72 hours, 0.51 μM) of the same molecule?
Answer: The value was −63.12%.

Question: And the “Cell death #1 (%)” value ([1]; MCF7, 72 hours, 1.54 μM)?
Answer: Its value is −70.27%.

Question: And the “Cell death #2 (%)” value ([1]; MCF7, 72 hours, 1.54 μM)?
Answer: The value was −54.19%.

Question: And the “Cell death #3 (%)” value ([1]; MCF7, 72 hours, 1.54 μM)?
Answer: The value was −60.89%.

Question: What about the “Cell death (%) MEAN” value ([1]; MCF7, 72 hours, 1.54 μM) of the same molecule?
Answer: The value was −61.78%.

Question: And the “Cell death #1 (%)” value ([1]; MCF7, 72 hours, 4.63 μM)?
Answer: Its value is −53.85%.

Question: And the “Cell death #2 (%)” value ([1]; MCF7, 72 hours, 4.63 μM)?
Answer: The value was −66.92%.

Question: And the “Cell death #3 (%)” value ([1]; MCF7, 72 hours, 4.63 μM)?
Answer: Its value is −69.26%.

Question: And the “Cell death (%) MEAN” value ([1]; MCF7, 72 hours, 4.63 μM)?
Answer: Its value is −63.34%.

Question: And the “Cell death #1 (%)” value ([1]; MCF7, 72 hours, 13.89 μM)?
Answer: The value was −48.83%.

Question: And the “Cell death #2 (%)” value ([1]; MCF7, 72 hours, 13.89 μM)?
Answer: Its value is −38.44%.

Question: And the “Cell death #3 (%)” value ([1]; MCF7, 72 hours, 13.89 μM)?
Answer: The value was −39.11%.

Question: And the “Cell death (%) MEAN” value ([1]; MCF7, 72 hours, 13.89 μM)?
Answer: The value was −42.13%.

Question: What about the “Cell death #1 (%)” value ([1]; MCF7, 72 hours, 41.67 μM) of the same molecule?
Answer: Its value is −22.36%.

Question: And the “Cell death #2 (%)” value ([1]; MCF7, 72 hours, 41.67 μM)?
Answer: The value was −24.04%.

Question: And the “Cell death #3 (%)” value ([1]; MCF7, 72 hours, 41.67 μM)?
Answer: Its value is −22.70%.

Question: What about the “Cell death (%) MEAN” value ([1]; MCF7, 72 hours, 41.67 μM) of the same molecule?
Answer: The value was −23.03%.

Question: What about the “Cell death #1 (%)” value ([1]; MCF7, 72 hours, 125.00 μM) of the same molecule?
Answer: The value was 88.19%.

Question: What about the “Cell death #2 (%)” value ([1]; MCF7, 72 hours, 125.00 μM) of the same molecule?
Answer: The value was 90.54%.

Question: And the “Cell death #3 (%)” value ([1]; MCF7, 72 hours, 125.00 μM)?
Answer: The value was 89.20%.

Question: And the “Cell death (%) MEAN” value ([1]; MCF7, 72 hours, 125.00 μM)?
Answer: Its value is 89.31%.

Question: And the “cytotoxicity compared with the other test articles” value [2]?
Answer: Its value is “less cytotoxic than dibenzyl butyl lactone derivative enantiomers A and B”.

Question: And the “TP Concentration” value ([2]; human)?
Answer: Its value is 230.8 µM.

Question: And the “dTP Concentration” value ([2]; human)?
Answer: Its value is 21.8 µM.

Question: What about the “similarity of dTP concentrations between all three compounds” value ([2]; human) of the same molecule?
Answer: The value was no more than 2 fold.
